Series [1] can be described thus: Cytotoxicity in Akata cells (CTG), concurrent with EBV assay. Particulars: human, Akata cells (without virus induction), Table 1. The series is classed as cell-based. As to the method:
(§1) Each experiment that evaluates the antiviral activity of compounds includes both positive and negative control compounds to ensure the performance of each assay. Concurrent assessment of cytotoxicity was also performed for each study in the same cell line and with the same compound exposure.
Assays for EBV were performed by reported methods.^37 Akata cells were induced to undergo a lytic infection with 50 μg/ml of a goat anti-human IgG antibody. Experimental compounds were diluted within plates. The cells were added and incubated for 72 h. Similar plates were initiated without virus induction/addition and used for measuring cytotoxicity by the addition of CTG. For all assays, the replication of the virus was assessed by the quantification of viral DNA. […] Compound concentrations sufficient to reduce genome copy number by 50% were calculated from experimental data as well as compound cytotoxicity.

Another series relates to EBV (Akata/Akata). The series is described as follows: EBV assay: viral DNA quantification in induced Akata cells. The series is classed as cell-based, Epstein-Barr virus. As to conditions: for EC50: human gammaherpesvirus 4, Akata. The method, then:
Akata cells were obtained from Louisiana State University, Baton Rouge, LA. The HCMV strain AD169 was obtained from the American Type Culture Collection (ATCC, Manassas, VA). Akata cells latently infected with EBV were obtained from Louisiana State University, Baton Rouge, LA.
as §1
Assays for EBV were performed by reported methods.^37 Akata cells were induced to undergo a lytic infection with 50 μg/ml of a goat anti-human IgG antibody. Experimental compounds were diluted within plates. The cells were added and incubated for 72 h. Similar plates were initiated without virus induction/addition and used for measuring cytotoxicity by the addition of CTG. For all assays, the replication of the virus was assessed by the quantification of viral DNA. For EBV, primers 5′-[…]-3′ and 5′-CAG TTC CTC GCCTTAGGTTG-3 amplified a fragment corresponding to coordinates 96802-97234 in EBV genome (AJ507799). Compound concentrations sufficient to reduce genome copy number by 50% were calculated from experimental data as well as compound cytotoxicity.

Like-named read-outs stand apart in the source and are kept apart here. A value given as a limit tells only on which side of the number the result lay.

`CC(C)C(=O)OCC1=C[C@@H](O)[C@H](n2ccc(N)nc2=O)O1` [Compound 8, 3′-Deoxy-3′,4′-didehydro-5′-O-isobutyroyl-cytidine] came in with a CC50 at 72 h in series [1] above 50 µM. In the series with EBV (Akata/Akata) (cell-based assay, highest concentration tested in primary assays 50 μM), the “activity against EBV” value was “performed most favourably”. For the same molecule, the EC50 in the series with EBV (Akata/Akata) (Akata/Akata, Table 1, read-out: EBV EC50) is 7.6 µM; in the series with EBV (Akata/Akata) (read-out: Result for compound (EC50/UM), EBV Akata/Akata, assay order Primary), 7.59 µM; in the series with EBV (Akata/Akata) (read-out: EC50 against EBV), 7.6 to 38.7 µM.
